Source: the supplement of paper PMC10627819

Key:
S. pneumoniae D39V = assay: fitness (endpoint OD595 vs no drug) (fraction); higher = more growth
Outline: (§1)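 Fitness was measured as bacterial growth in 384-well plates inoculated at OD595 0.01 (30 µl, or 55 µl for S. pneumoniae). Media were TSB, LB Lennox or CY, at 37 °C. OD595 was read every 30 min for 14 h and background-subtracted against the first reading. Fitness is OD595 at the transition into stationary phase divided by the robust mean of no-drug control wells, capped at 1.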

B. subtilis 168 = assay: as above
Outline: as §1
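Note: OD595 on entry to stationary phase over no-drug wells; at most 1.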

CN(C)[C@@H]1C(O)=C(C(N)=O)C(=O)[C@@]2(O)C(O)=C3C(=O)c4c(O)ccc(Cl)c4[C@@](C)(O)[C@H]3C[C@@H]12 [Chlortetracycline] + CO[C@H]1/C=C/O[C@@]2(C)Oc3c(C)c(O)c4c(O)c(c(/C=N/N5CCN(C)CC5)c(O)c4c3C2=O)NC(=O)/C(C)=C\C=C\[C@H](C)[C@H](O)[C@@H](C)[C@@H](O)[C@@H](C)[C@H](OC(C)=O)[C@@H]1C [Rifampicin]
fitness, S. pneumoniae D39V, one replicate
Conditions	first compound 0.012 µg/mL	first compound 0.024 µg/mL	first compound 0.048 µg/mL
partner 0.025 µg/mL	0.844	0.793	0.642
partner 0.2 µg/mL	0	0	0

fitness, S. pneumoniae D39V
Conditions	first compound 0.012 µg/mL	first compound 0.024 µg/mL	first compound 0.048 µg/mL	first compound 0.375 µg/mL	first compound 0.75 µg/mL	first compound 1.5 µg/mL
partner 0.025 µg/mL	–	–	–	0.0932	0.0627	0.0877
partner 0.05 µg/mL	0.729	0.687	0.46	0.077	0.103	0.113
partner 0.1 µg/mL	0.472	0.429	0.272	0.102	0.102	0.14

C[C@H]1c2cccc(O)c2C(=O)C2=C(O)[C@]3(O)C(=O)C(C(N)=O)=C(O)[C@@H](N(C)C)[C@@H]3[C@@H](O)[C@@H]21 [Doxycycline] + CO/N=C(\C(=O)N[C@@H]1C(=O)N2C(C(=O)[O-])=C(C[N+]3(C)CCCC3)CS[C@H]12)c1csc(N)n1 [Cefepime]
fitness, S. pneumoniae D39V, one replicate
Conditions	first compound 0.003875 µg/mL	first compound 0.00775 µg/mL	first compound 0.031 µg/mL	first compound 0.062 µg/mL
partner 0.0078 µg/mL	≥ 1	≥ 1	0.936	0.84
partner 0.0155 µg/mL	≥ 1	0.991	0.888	0.779
partner 0.031 µg/mL	0.637	0.783	0.834	0.684

fitness, S. pneumoniae D39V
Conditions	partner 0.007 µg/mL	partner 0.0078 µg/mL	partner 0.014 µg/mL	partner 0.0155 µg/mL	partner 0.028 µg/mL	partner 0.031 µg/mL
first compound 0.0155 µg/mL	0.944	≥ 1	0.934	0.974	0.858	0.882
first compound 0.031 µg/mL	0.951	–	0.938	–	0.88	–

CC(=O)Oc1ccccc1C(=O)O [Acetylsalicylic acid] + CO[C@H]1/C=C/O[C@@]2(C)Oc3c(C)c(O)c4c(O)c(c(/C=N/N5CCN(C)CC5)c(O)c4c3C2=O)NC(=O)/C(C)=C\C=C\[C@H](C)[C@H](O)[C@@H](C)[C@@H](O)[C@@H](C)[C@H](OC(C)=O)[C@@H]1C [Rifampicin]
fitness, S. pneumoniae D39V
Conditions	first compound 250 µg/mL	first compound 500 µg/mL	first compound 1000 µg/mL
partner 0.025 µg/mL	0.932	0.913	0.81
partner 0.05 µg/mL	–	0.899	0.668
partner 0.1 µg/mL	0.476	0.37	–

S. pneumoniae D39V, partner 0.2 µg/mL, one replicate
Conditions	fitness
first compound 250 µg/mL	0
first compound 500 µg/mL	0
first compound 1000 µg/mL	0

CC(=O)Oc1ccccc1C(=O)O [Acetylsalicylic acid] + CC(C1CCC(C(O1)OC2C(CC(C(C2O)OC3C(C(C(CO3)(C)O)NC)O)N)N)N)NC [Gentamicin]
fitness, S. pneumoniae D39V, main component drawn
Conditions	partner 2 µg/mL	partner 4 µg/mL	partner 8 µg/mL
first compound 250 µg/mL	0.955	0.967	0.93
first compound 500 µg/mL	0.972	0.947	0.917

CN(C)[C@@H]1C(O)=C(C(N)=O)C(=O)[C@@]2(O)C(O)=C3C(=O)c4c(O)ccc(Cl)c4[C@@](C)(O)[C@H]3C[C@@H]12 [Chlortetracycline] + C/C(=C\C(=O)OCCCCCCCCC(=O)O)C[C@@H]1OC[C@H](C[C@@H]2O[C@H]2[C@@H](C)[C@H](C)O)[C@@H](O)[C@H]1O [Pseudomonic acid]
fitness, S. pneumoniae D39V
Conditions	first compound 0.012 µg/mL	first compound 0.024 µg/mL	first compound 0.048 µg/mL	first compound 0.375 µg/mL	first compound 0.75 µg/mL	first compound 1.5 µg/mL
partner 0.03 µg/mL	0.884	0.853	0.829	0.0434	0.0614	0.0477
partner 0.06 µg/mL	0.78	0.75	0.779	0.0787	0.0801	0.0542
partner 0.12 µg/mL	0.57	0.586	0.62	0.0891	0.0486	0.0665

CN(C)[C@@H]1C(O)=C(C(N)=O)C(=O)[C@@]2(O)C(O)=C3C(=O)c4c(O)ccc(Cl)c4[C@@](C)(O)[C@H]3C[C@@H]12 [Chlortetracycline] + CO/N=C(\C(=O)N[C@@H]1C(=O)N2C(C(=O)O)=C(COC(N)=O)CS[C@H]12)c1ccco1 [Cefuroxime]
fitness, B. subtilis 168
Conditions	first compound 0.0475 µg/mL	first compound 0.095 µg/mL	first compound 0.19 µg/mL
partner 0.04875 µg/mL	0.667	0.593	0.162
partner 0.0975 µg/mL	0.601	0.519	0.135
partner 0.195 µg/mL	0.429	0.312	0.0926

fitness, B. subtilis 168, one replicate
Conditions	partner 0.39 µg/mL	partner 0.78 µg/mL	partner 1.562 µg/mL	partner 3.125 µg/mL	partner 6.25 µg/mL
first compound 0.0475 µg/mL	0.346	0.362	0.303	0.275	0.21
first compound 0.095 µg/mL	0.207	0.145	0.103	0.0825	0.0597
first compound 0.19 µg/mL	0.0621	0.0481	0.038	0.0341	0.0237

CC(=O)Oc1ccccc1C(=O)O [Acetylsalicylic acid] + CN(C)C(=O)C(CCN1CCC(O)(c2ccc(Cl)cc2)CC1)(c1ccccc1)c1ccccc1 [Loperamide]
fitness, S. pneumoniae D39V
Conditions	partner 17.14 µg/mL	partner 20 µg/mL	partner 34.28 µg/mL	partner 40 µg/mL	partner 80 µg/mL
first compound 250 µg/mL	0.987	0.989	0.945	0.982	≥ 1
first compound 500 µg/mL	0.972	≥ 1	0.981	≥ 1	≥ 1
first compound 1000 µg/mL	0.859	0.987	0.879	0.967	0.937

S. pneumoniae D39V, partner 68.57 µg/mL, one replicate
Conditions	fitness
first compound 250 µg/mL	0.931
first compound 500 µg/mL	0.927
first compound 1000 µg/mL	≥ 1

CN(C)[C@@H]1C(O)=C(C(N)=O)C(=O)[C@@]2(O)C(O)=C3C(=O)c4c(O)ccc(Cl)c4[C@@](C)(O)[C@H]3C[C@@H]12 [Chlortetracycline] + CO[C@@H]1[C@@H](OC(N)=O)[C@@H](O)[C@H](Oc2ccc3c(O)c(NC(=O)c4ccc(O)c(CC=C(C)C)c4)c(=O)oc3c2C)OC1(C)C [Novobiocin]
fitness, B. subtilis 168
Conditions	first compound 0.0475 µg/mL	first compound 0.095 µg/mL	first compound 0.19 µg/mL
partner 0.0125 µg/mL	0.909	0.765	0.469
partner 0.025 µg/mL	0.623	0.653	0.336
partner 0.05 µg/mL	0.986	0.844	0.398

fitness, B. subtilis 168, one replicate
Conditions	partner 0.1 µg/mL	partner 0.125 µg/mL	partner 0.2 µg/mL	partner 0.25 µg/mL	partner 0.5 µg/mL
first compound 0.0475 µg/mL	0.948	0.928	0.934	0.966	0.648
first compound 0.095 µg/mL	0.863	0.839	0.936	0.811	0.577
first compound 0.19 µg/mL	0.529	0.548	0.52	0.537	0.323

CC(=O)Oc1ccccc1C(=O)O [Acetylsalicylic acid] + C[C@@H](O)[C@H]1C(=O)N2C(C(=O)O)=C(SCCNC=N)C[C@H]12 [Imipenem]
fitness, S. pneumoniae D39V
Conditions	partner 0.005 µg/mL	partner 0.0065 µg/mL	partner 0.01 µg/mL	partner 0.013 µg/mL	partner 0.02 µg/mL	partner 0.026 µg/mL
first compound 250 µg/mL	0.948	0.983	0.898	0.953	0.912	0.914
first compound 500 µg/mL	0.956	0.969	0.954	0.993	0.955	0.912
first compound 1000 µg/mL	0.856	0.868	0.85	0.943	0.813	0.907

CC(=O)Oc1ccccc1C(=O)O [Acetylsalicylic acid] + O=C1CN(/N=C/c2ccc([N+](=O)[O-])o2)C(=O)N1 [Nitrofurantoin]
fitness, S. pneumoniae D39V
Conditions	partner 1.285 µg/mL	partner 2 µg/mL	partner 2.57 µg/mL	partner 4 µg/mL	partner 8 µg/mL
first compound 250 µg/mL	0.979	0.9	0.973	0.91	0.813
first compound 500 µg/mL	0.974	0.835	0.947	0.786	0.742
first compound 1000 µg/mL	0.931	0.513	0.93	0.446	0.467

S. pneumoniae D39V, partner 5.14 µg/mL, one replicate
Conditions	fitness
first compound 250 µg/mL	0.93
first compound 500 µg/mL	0.888
first compound 1000 µg/mL	0.813

CC(=O)Oc1ccccc1C(=O)O [Acetylsalicylic acid] + CC[C@H]1OC(=O)[C@H](C)[C@@H](O[C@H]2C[C@@](C)(OC)[C@@H](O)[C@H](C)O2)[C@H](C)[C@@H](O[C@@H]2O[C@H](C)C[C@H](N(C)C)[C@H]2O)[C@](C)(OC)C[C@@H](C)C(=O)[C@H](C)[C@@H](O)[C@]1(C)O [Clarithromycin]
fitness, S. pneumoniae D39V, one replicate
Conditions	first compound 250 µg/mL	first compound 500 µg/mL	first compound 1000 µg/mL
partner 0.007812 µg/mL	0.824	0.781	0.281
partner 0.01562 µg/mL	0.783	0.763	0.193
partner 0.03125 µg/mL	0.621	0.627	0.257

fitness, S. pneumoniae D39V
Conditions	partner 0.0625 µg/mL	partner 0.07 µg/mL	partner 0.125 µg/mL	partner 0.14 µg/mL	partner 0.25 µg/mL	partner 0.28 µg/mL
first compound 250 µg/mL	0.642	0.195	0.369	0.137	0.133	0.104
first compound 500 µg/mL	0.586	0.228	0.359	0.167	0.147	0.108
first compound 1000 µg/mL	0.405	0.155	0.148	0.139	0.0751	0.0935

CC(=O)Oc1ccccc1C(=O)O [Acetylsalicylic acid] + O=C(O)c1cn(C2CC2)c2cc(N3CCNCC3)c(F)cc2c1=O [Ciprofloxacin]
fitness, S. pneumoniae D39V
Conditions	first compound 250 µg/mL	first compound 500 µg/mL	first compound 1000 µg/mL
partner 0.125 µg/mL	0.963	0.907	0.863
partner 0.25 µg/mL	0.883	0.904	0.833
partner 0.5 µg/mL	0.835	0.835	0.719
